Laboratory results as given in US8440724B2, “Inhibiting neurotransmitter reuptake” (Mayo Foundation for Medical Education and Research, priority 2008, dated 2013).
Like-named read-outs stand apart in the source and are kept apart here.

Key:
[1] = molecular target: T1, CYP2D6 (Homo sapiens, UniProt P10635); test: CYP2D6 inhibition, CYP2D6/AMMC kit (BD Biosciences), fluorescent substrate; type: in vitro ADME; details: for Potency of inhibition at CYP2D6, in words: compared with PRC200-SS
T1 construct: purchased BD Biosciences 459200
T1 sequence (P10635 whole entry): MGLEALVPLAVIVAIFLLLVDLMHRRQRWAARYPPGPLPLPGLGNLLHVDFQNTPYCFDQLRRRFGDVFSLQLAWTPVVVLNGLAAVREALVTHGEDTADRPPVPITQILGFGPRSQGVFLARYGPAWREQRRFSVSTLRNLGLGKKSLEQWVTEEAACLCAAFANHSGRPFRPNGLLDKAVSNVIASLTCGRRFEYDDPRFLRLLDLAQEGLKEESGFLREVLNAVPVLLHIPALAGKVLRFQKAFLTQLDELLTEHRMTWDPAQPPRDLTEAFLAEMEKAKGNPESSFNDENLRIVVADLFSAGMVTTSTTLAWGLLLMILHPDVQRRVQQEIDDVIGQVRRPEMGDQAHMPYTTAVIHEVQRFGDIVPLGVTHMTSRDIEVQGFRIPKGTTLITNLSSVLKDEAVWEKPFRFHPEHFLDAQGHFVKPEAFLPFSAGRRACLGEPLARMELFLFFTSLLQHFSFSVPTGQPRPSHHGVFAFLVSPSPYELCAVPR
Text: This kit includes the use of a fluorescent P450 substrate (AMMC or 3-[2-(N,N-diethyl-N-methylamino)ethyl]-7-methoxy-4-methylcoumarin) and recombinant human P450.

[2] = test system: mice; test: Locomotor activity in motility chamber, mice; type: in vivo, mouse; details: doses that exhibited positive effects in the TST, FIG. 11
[3] = molecular target: T2, mouse NET (Mus musculus, UniProt O55192); test: Competition binding against [3H]nisoxetine, mouse hippocampus tissue; details: mouse brain tissue (hippocampus), FIG. 10F vs Table 2
T2 construct: from tissue; host or cells: mouse hippocampus
T2 sequence (O55192 whole entry): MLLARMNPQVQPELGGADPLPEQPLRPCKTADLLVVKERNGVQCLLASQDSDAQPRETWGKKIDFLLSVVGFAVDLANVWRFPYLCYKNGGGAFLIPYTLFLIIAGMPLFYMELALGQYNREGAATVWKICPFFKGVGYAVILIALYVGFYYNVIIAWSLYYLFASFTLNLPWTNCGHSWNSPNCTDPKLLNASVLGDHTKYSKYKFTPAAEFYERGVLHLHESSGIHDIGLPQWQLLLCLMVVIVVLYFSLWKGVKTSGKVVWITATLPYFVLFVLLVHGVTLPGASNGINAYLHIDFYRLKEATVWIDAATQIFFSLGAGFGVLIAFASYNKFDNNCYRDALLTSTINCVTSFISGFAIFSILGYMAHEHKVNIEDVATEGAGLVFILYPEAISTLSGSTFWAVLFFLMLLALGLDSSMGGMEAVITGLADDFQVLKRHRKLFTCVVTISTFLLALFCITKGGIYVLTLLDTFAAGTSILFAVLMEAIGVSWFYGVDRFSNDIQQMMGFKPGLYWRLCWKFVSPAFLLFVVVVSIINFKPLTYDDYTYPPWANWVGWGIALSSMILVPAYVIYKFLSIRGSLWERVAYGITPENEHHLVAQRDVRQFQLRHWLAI
Method: (§1) FIGS. 10A-D contain graphs plotting activity levels (counts/6 minutes) for mice treated with the indicated compound at the indicated amount. […] Each group of mice included between three and seven mice. FIGS. 10F is a line graph plotting the competition binding of the indicated compound against [^3H]nisoxetine for mouse hippocampus tissue. FIGS. 10G is a line graph plotting the competition binding of the indicated compound against [^3H]citalopram for mouse cortex tissue. FIG. 10H is a bar graph plotting the duration of immobility (seconds) during a tail suspension test of mice intraperitoneally (ip) or per os (po; orally) treated with 5 mg/kg of the indicated compound. […] Each group of mice included between seven and nine mice.

[4] = molecular target: T3, mouse SERT (Mus musculus, UniProt Q60857); test: Competition binding against [3H]citalopram, mouse cortex tissue; details: mouse brain tissue (cortex), FIG. 10G vs Table 2
T3 construct: from tissue; host or cells: mouse cortex
T3 sequence (Q60857 whole entry): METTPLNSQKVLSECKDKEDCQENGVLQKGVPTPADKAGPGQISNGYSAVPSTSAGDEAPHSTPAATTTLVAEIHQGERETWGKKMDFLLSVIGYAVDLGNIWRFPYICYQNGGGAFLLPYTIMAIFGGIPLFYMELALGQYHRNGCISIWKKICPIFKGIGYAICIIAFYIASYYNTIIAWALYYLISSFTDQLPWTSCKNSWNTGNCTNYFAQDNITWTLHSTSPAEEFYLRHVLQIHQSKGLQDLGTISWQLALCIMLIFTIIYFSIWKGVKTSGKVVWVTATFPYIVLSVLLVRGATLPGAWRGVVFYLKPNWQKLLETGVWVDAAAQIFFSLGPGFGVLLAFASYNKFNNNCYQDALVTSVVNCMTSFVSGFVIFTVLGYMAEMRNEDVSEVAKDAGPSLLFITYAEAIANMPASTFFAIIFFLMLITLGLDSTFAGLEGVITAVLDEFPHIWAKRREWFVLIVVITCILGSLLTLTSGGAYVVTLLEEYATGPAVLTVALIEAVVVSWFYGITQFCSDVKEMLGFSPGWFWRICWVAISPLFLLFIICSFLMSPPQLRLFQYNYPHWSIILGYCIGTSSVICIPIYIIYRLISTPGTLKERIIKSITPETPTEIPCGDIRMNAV
Method: as §1

Q: For `CNC[C@H](c1ccc2ccccc2c1)[C@@H](F)c1ccccc1` [MCJ001-F-RS, (2S,3R)-3-fluoro-N-methyl-2-(naphthalen-2-yl)-3-phenylpropan-1-amine], which “Potency of inhibition at CYP2D6, in words” value [1] is on record?
A: markedly reduced the potency of inhibition at CYP2D6

Q: And the IC50 ([1]; recombinant human P450, AMMC substrate, read-out: Mean CYP2D6 (IC50))?
A: 0.16 µM

Q: And the “Effect on locomotor activity” value [2]?
A: Only d-amphetamine caused a significant effect on locomotor activity

Q: `CNC[C@H](c1ccc2ccccc2c1)[C@@H](N=[N+]=[N-])c1ccccc1` [MCJ001-N3-RS, (2S,3R)-3-azido-N-methyl-2-(naphthalen-2-yl)-3-phenylpropan-1-amine] was tested. Which IC50 [1] did it give?
A: 4 µM

Q: `CNC[C@H](c1ccc2ccccc2c1)[C@H](OC)c1ccccc1` [MCJ001-OMe-SS, (2S,3S)-3-methoxy-N-methyl-2-(naphthalen-2-yl)-3-phenylpropan-1-amine] was tested. Which “Potency of inhibition at CYP2D6, in words” value [1] did it give?
A: markedly reduced the potency of inhibition at CYP2D6

Q: And the “Effect on locomotor activity” value [2]?
A: Only d-amphetamine caused a significant effect on locomotor activity

Q: Which “Potency at mouse NET as compared to potency at human NET” value [3] does the source give for `CN(C)C[C@H](c1ccc2ccccc2c1)[C@H](N)c1ccccc1` [MCJ002-NH2-SS, (2S,3S)-N1,N1-dimethyl-2-(naphthalen-2-yl)-3-phenylpropane-1,3-diamine] here?
A: 10 fold weaker

Q: And the “Potency at mouse SERT as compared to human SERT” value [4]?
A: about the same potency at mouse SERT
